Source: patent US20090163409A1, “Trappin-2 (elafin) inhibits HIV” (priority 2005, published 2009)
“Also recorded” adds a separate entry of the source. Where no end group is shown, it is not given here.

B1: SLP-I: protease inhibitor and member of the antileukoprotease superfamily, first isolated from human saliva (protein, UniProt P03973 26-132, looked up)
Antileukoproteinase: SGKSFKAGVCPPKKSAQCLRYKKPECQSDWQCPGKKRCCPDTCGIKCLDPVDTPNPTRRKPGKCPVTYGQCLMLNPPNFCEMDGQCKRDLKCCMGMCGKSCVSPVKA

What was measured:
HIV HxBc2 = HIV HxBc2 viral replication in MT4 cells (RT activity in supernatants, p24 western blot); format: cell-based
Method: FIG. 4. Trappin-2 inhibits HIV viral replication in an in vitro system. A) We tested HIV HxBc2 in an established viral replication model system and measured the effect of pretreatment of recombinant human trappin-2 (6.0 kDa form) on cells in viral infection 15,19. Briefly, 1 or 5 ug/mL of trappin-2 was incubated with MT4 cells for 1 hour. Then equivalent amounts of virus (0.02 cpm/cell) were added to the cells in the presence of trappin-2 for 2 hours. Infected cells were washed and cultured in the absence of trappin-2. As a control, 10 uM of AZT was used. Viral production in supernatants was evaluated by RT activity after 6 days of culture. […] B) The experiment was repeated with an additional assay of trappin-2 preincubated with cells and subsequently supplemented into the culture media (lane 6). Supernatants were harvested at Day 6 of infection and assayed for both RT activity and western blot analysis for HIV p24. Error bars are mean±SEM.
(§1) Finally, the ability of trappin-2 (6.0 kDa form) to inhibit HIV infection in an established HIV infection model was examined. A highly infectable T cell line (MT4) was used to assay the effect of trappin-2 inhibition on HIV HxBc2 replication 13,14,15. HIV inhibition experiments were performed by preincubating trappin-2 with either the virus, or target cells. […] In our in vitro system a 5 fold increase in trappin-2 (FIG. 4b) had significant effects on HIV replication. Trappin-2 has previously been reported to have immunomodulatory effects and thus its influence on immune regulation is of interest. To determine if the HIV inhibitory effects of trappin-2 are the result of induction of anti-viral cytokines such as IFN-γ, cytokine responses of MT4 cells after treatment with trappin-2 were measured.

MT4 cells = experiment: Cytokine responses of MT4 cells after treatment with trappin-2; format: cell-based
Method: as §1

[1] = system: macrophage tropic (R5) HIV; details: macrophage tropic (R5) viruses; cited from earlier work
T cell tropic (X4) HIV = details: T cell tropic (X4) viruses; cited from earlier work

| Molecule | HIV viral replication (RT activity in supernatants) (HIV HxBc2; MT4 cells pretreated 1 hour with 1 or 5 ug/mL trappin-2 (physiological concentrations), virus 2 hours, washed, cultured without trappin-2, day 6) | inhibition of HIV replication (HIV HxBc2; simultaneous addition of trappin-2 and virus to target cells, compared with 1-hour pre-exposure) | HIV viral replication (RT activity, p24 western blot) (HIV HxBc2; trappin-2 preincubated 1 hour with cells and added back into the culture media, day 6) | induction of cytokines (anti-viral cytokines such as IFN-γ) (MT4 cells) | inhibition of HIV infection of macrophage cells [1] | prevention of infection of T cells (T cell tropic (X4) HIV) |
| --- | --- | --- | --- | --- | --- | --- |
| trappin-2: recombinant human trappin-2 (6.0 kDa form), serine protease inhibiter of the Trappin family, also known as elafin/SKALP (AQEPVKGPVSTKPGSCPIILIRCAMLNPPNRCLKDTDCPGIKKCCEGSCGMACFVPQ; not fully specified (bridges); also: four disulfide bridges, pairing not given here; UniProt P19957 61-117, looked up) | greatly reduced HIV viral replication in a dose dependent manner; also recorded: significantly reduced virus replication | significantly less inhibition | even more dramatic decrease in viral replication | No induction of cytokines was detected |  |  |
| B1 |  |  |  |  | inhibit HIV infection of macrophage cells | does not prevent infection of T cells |
